Test system: patient samples (pBMC from CLL patients)
Assay: Cytotoxicity assay of example 1 (new method), chemosensitivity index Ci
Assay type: cell-based, human
Method: (2) A more complex standardization is the calculation of an index. In case of the chemosensitivity testing it is not a single value that has to be standardized. The chemosensitivity towards a drug is tested with several concentrations of the drug in parallel in a cell culture assay. […] This method was adopted for the present invention from the analysis of DiSC assays (Staib et al., British Journal of Haematology, 2005, 128, 783-791). The Chemosensitivity Index Ci was designed as a prognostic index for ex vivo chemosensitivity assays. Assay results were expressed as percent tumor cell survival (% TCS). The dose-response curve as a function of the dose-response relationship may be mathematically described by a […] regression model (FIG. 4). The dose-response curve was defined as CS=c1*e^conc*c2 % with cell survival (CS), drug concentration (conc) and the constants c1 and c2. c1 represented the y-axis distance and c2 the slope of the curve. The area under the curve (AUC) as an exact measure for the total dose response relation was defined as AUC=−e^c1/c2, on condition that c2 is less than 0, otherwise AUC is infinite. The chemosensitivity index, Ci, was set up as Ci=e^−AUC*c with a domain between 0 and 1. The drug-specific constant c was used for adjusting the Ci-value of 0.5 as the cut-off point between resistance and sensitivity. The constant c was defined as
with AUCcut-off as the smallest AUC value among all clinical non-responding patients of the training data set. Obviously, all cytotoxic agents given for treatment were ineffective in these patients. The cut-off Ci value must be adjusted to 0.5 for prognosis of the effect of the drug on a patient in vivo when the drug is tested on said patient's cells in vitro using the method of the present invention. Ci values of 0-0.5 indicated resistance and values above 0.5 predicted sensitivity against the drug tested.
Peripheral blood mononuclear cells (pBMC) from a patient with chronic lymphatic leukaemia were isolated from the PB samples as described before (Staib, P. et al., Br. J. Haematol., 128(6):783-91 (2005)), resuspended in RPMI 1640 medium (Biochrom, Berlin, Germany) containing 20 vol. % fetal calf serum (FCS; Biochrom, Berlin, Germany) and added into the precoated 96-well plate with a final cell concentration of 10,000 cells/well and a volume of 100 μl. The plates were then agitated for 15 min in order to solubilize the dried fludarabine phosphate. Subsequently, the plates were incubated for 96 h (37° C., 5% CO2, humidified atmosphere). Thereafter, 50 μl of an 11 μM propidium iodide (PI)-solution in 0.9% aqueous NaCl solution (NaCl 0.9%) (Invitrogen, Leiden, Netherlands) were added and incubated for 15 min at room temperature. PI is a standard flow cytometric viability probe and is used to distinguish viable from nonviable cells. Viable cells with intact membranes exclude PI, whereas the membranes of dead and damaged cells are permeable to PI. PI only stains cells with compromised cell membrane, whilst live cells which have intact membranes are not stained by PI.
The chemosensitivity index Ci based on the DiSC assay as described in Staib, P. et al., Br. J. Haematol., 128(6):783-91 (2005) is known to have a very high accuracy of prediction (98%) for the clinical outcome of a particular chemotherapy (Staib, P. et al., Br. J. Haematol., 128(6):783-91 (2005)). In order to evaluate the accuracy of the cytotoxicity assay as described in example 1 (“new method”), the Ci determination was performed for assay results of patient samples analyzed with the traditional DiSC assay and—in parallel—with the new assay method described in example 1. In total, 22 patient samples were analyzed. Fludara® was used in both assays. The cytotoxicity assay of example 1 was performed as described therein, and the DiSC assay was performed as described in Staib, P. et al., Br. J. Haematol., 128(6):783-91 (2005).

Nc1nc(F)nc2c1ncn2[C@@H]1O[C@H](COP(=O)(O)O)[C@@H](O)[C@@H]1O [Fludarabine phosphate, 2-Fluoro-9-(5-O-phosphono-β-D-arabinofuranosyl)-9H-purin-6-amine]
patients DiSC-Assay resistant / New method sensitive (of 22 patients): 0
patients DiSC-Assay sensitive / New method resistant (of 22 patients): 0
Ci (New Method) (patient #1): 0.99
prediction (New Method) (patient #1): sensitive (values above 0.5 predicted sensitivity against the drug tested)
Ci (New Method) (patient #2): 0.94
prediction (New Method) (patient #2): sensitive (values above 0.5 predicted sensitivity against the drug tested)
Ci (New Method) (patient #3): 0.99
prediction (New Method) (patient #3): sensitive (values above 0.5 predicted sensitivity against the drug tested)
Ci (New Method) (patient #4): 0.89
prediction (New Method) (patient #4): sensitive (values above 0.5 predicted sensitivity against the drug tested)
Ci (New Method) (patient #5): 0.93
prediction (New Method) (patient #5): sensitive (values above 0.5 predicted sensitivity against the drug tested)
Ci (New Method) (patient #6): 0.79
prediction (New Method) (patient #6): sensitive (values above 0.5 predicted sensitivity against the drug tested)
Ci (New Method) (patient #7): 0.74
prediction (New Method) (patient #7): sensitive (values above 0.5 predicted sensitivity against the drug tested)
Ci (New Method) (patient #8): 0.83
prediction (New Method) (patient #8): sensitive (values above 0.5 predicted sensitivity against the drug tested)
Ci (New Method) (patient #9): 0.65
prediction (New Method) (patient #9): sensitive (values above 0.5 predicted sensitivity against the drug tested)
Ci (New Method) (patient #10): 0.74
prediction (New Method) (patient #10): sensitive (values above 0.5 predicted sensitivity against the drug tested)
Ci (New Method) (patient #11): 0.60
prediction (New Method) (patient #11): sensitive (values above 0.5 predicted sensitivity against the drug tested)
Ci (New Method) (patient #12): 0.81
prediction (New Method) (patient #12): sensitive (values above 0.5 predicted sensitivity against the drug tested)
Ci (New Method) (patient #13): 0.65
prediction (New Method) (patient #13): sensitive (values above 0.5 predicted sensitivity against the drug tested)
Ci (New Method) (patient #14): 0.63
prediction (New Method) (patient #14): sensitive (values above 0.5 predicted sensitivity against the drug tested)
Ci (New Method) (patient #15): 0.71
prediction (New Method) (patient #15): sensitive (values above 0.5 predicted sensitivity against the drug tested)
Ci (New Method) (patient #16): 0.35
prediction (New Method) (patient #16): resistant (Ci values of 0-0.5 indicated resistance)
Ci (New Method) (patient #17): 0.41
prediction (New Method) (patient #17): resistant (Ci values of 0-0.5 indicated resistance)
Ci (New Method) (patient #18): 0.35
prediction (New Method) (patient #18): resistant (Ci values of 0-0.5 indicated resistance)
Ci (New Method) (patient #19): 0.24
prediction (New Method) (patient #19): resistant (Ci values of 0-0.5 indicated resistance)
Ci (New Method) (patient #20): 0.36
prediction (New Method) (patient #20): resistant (Ci values of 0-0.5 indicated resistance)
Ci (New Method) (patient #21): 0.41
prediction (New Method) (patient #21): resistant (Ci values of 0-0.5 indicated resistance)
Ci (New Method) (patient #22): 0.24
prediction (New Method) (patient #22): resistant (Ci values of 0-0.5 indicated resistance)

From patent US20100075370A1, “METHOD FOR DETERMINATION OF CELL VIABILITY BY USING FLOW CYTOMETRY WITH FIXED VOLUME ACQUISITION” (TUMORTEC GMBH, priority 2006, published 2010)
